The test addresses T1, human PAR-2 (hPAR-2) receptor expressed in HEK-293 T cells in an endogenous manner (Homo sapiens, UniProt P55085).
T1 construct: human PAR-2 (hPAR-2) receptor expressed in HEK-293 T cells in an endogenous manner; endogenous in cells; host or cells: HEK-293 T cells
T1 sequence (P55085 26-397): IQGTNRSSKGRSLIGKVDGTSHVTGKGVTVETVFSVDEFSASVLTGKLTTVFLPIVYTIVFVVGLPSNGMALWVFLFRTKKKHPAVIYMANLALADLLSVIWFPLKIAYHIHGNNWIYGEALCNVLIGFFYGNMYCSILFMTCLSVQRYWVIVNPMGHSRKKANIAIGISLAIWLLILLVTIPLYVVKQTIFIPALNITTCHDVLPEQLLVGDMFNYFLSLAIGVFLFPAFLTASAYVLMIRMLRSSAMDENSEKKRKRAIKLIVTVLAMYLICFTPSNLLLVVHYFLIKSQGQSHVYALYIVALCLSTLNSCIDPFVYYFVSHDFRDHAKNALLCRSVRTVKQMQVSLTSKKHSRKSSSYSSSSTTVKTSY
As to the kind of experiment: In vitro human PAR-2 functional antagonist activity using calcium assays (Fluo4AM, FLIPR Tetra). The note with it: HEK-293 T cells stimulated by an EC80 of the 2-Furoyl-LIGRLO-NH2 peptide after 10 min incubation with compound; 20 concentrations, duplicate, two independent experiments. Type of test: cell-based. Summed up:
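Antagonist activity was taken as the decrease in the calcium response to an EC80 of 2-Furoyl-LIGRLO-NH2, measured over 5 min. The agonist was added after a 10 min compound-alone step on the same plate. The HEK-293 T cells express PAR-2 endogenously and were loaded with 1 μM Fluo4AM. Signals were referenced to buffer and EC80-alone controls.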

Counter-ions that a name gives are not always drawn.

One may read the IC50 as the concentration that gives 50% inhibition. In the case of `CC1(C)CCCN1C(=O)c1ccc2c(-c3ccc(Cl)c(F)c3)cn(C(C)(C)C)c2n1` [Example 16, (1-(tert-butyl)-3-(4-chloro-3-fluorophenyl)-1H-pyrrolo[2,3-b]pyridin-6-yl)(2,2-dimethylpyrrolidin-1-yl)methanone], the IC50 fell in the range of 20 to 10000 nM. As for `CC1(C)CN(C(=O)c2ccc(C(=O)O)cn2)CCN1C(=O)c1ccc2c(-c3ccc(Cl)c(F)c3)cn(C(C)(C)C)c2n1` [Example 169, 6-(4-(1-(tert-butyl)-3-(4-chloro-3-fluorophenyl)-1H-pyrrolo[2,3-b]pyridine-6-carbonyl)-3,3-dimethylpiperazine-1-carbonyl)nicotinic acid], the IC50 is 20 to 10000 nM.

Regarding `Cc1cc(N2CCN(C(=O)c3ccc4c(-c5ccc(Cl)c(F)c5)cn(CC(=O)O)c4n3)C(C)(C)C2)nc(C)c1C(=O)O` [Example 133, 6-(4-(1-(carboxymethyl)-3-(4-chloro-3-fluorophenyl)-1H-pyrrolo[2,3-b]pyridine-6-carbonyl)-3,3-dimethylpiperazin-1-yl)-2,4-dimethylnicotinic acid], the IC50 is greater than 10000 nM.

Consider `Cc1cc(N2CCN(C(=O)c3ccc4c(-c5ccc(C(F)(F)F)nc5)cn(CC(C)C)c4n3)C(C)(C)C2)nc(C)c1C(=O)O` [Example 170, 6-(4-(1-isobutyl-3-(6-(trifluoromethyl)pyridin-3-yl)-1H-pyrrolo[2,3-b]pyridine-6-carbonyl)-3,3-dimethylpiperazin-1-yl)-2,4-dimethylnicotinic acid], for which the IC50 fell in the range of 20 to 10000 nM. To `CC(C)(C(N)=O)c1ccnc(N2CCN(C(=O)c3ccc4c(-c5ccc(Cl)c(F)c5)cn(C(C)(C)C)c4n3)C(C)(C)C2)c1` [Example 177, 2-(2-(4-(1-(tert-butyl)-3-(4-chloro-3-fluorophenyl)-1H-pyrrolo[2,3-b]pyridine-6-carbonyl)-3,3-dimethylpiperazin-1-yl)pyridin-4-yl)-2-methylpropanamide] belongs less than 20 nM; to `CC1(C)C(=O)NCCN1C(=O)c1ccc2c(-c3ccc(Cl)c(F)c3)cn(CCOCC(F)(F)F)c2n1` [Example 39, 4-(3-(4-chloro-3-fluorophenyl)-1-(2-(2,2,2-trifluoroethoxy)ethyl)-1H-pyrrolo[2,3-b]pyridine-6-carbonyl)-3,3-dimethylpiperazin-2-one], 20 to 10000 nM. On to `CC(C)Cc1nn(-c2ccc(Cl)cc2Cl)c2ccc(C(=O)N3CCNC(=O)C3(C)C)nc12` [Example 73, 4-(1-(2,4-dichlorophenyl)-3-isobutyl-1H-pyrazolo[4,3-b]pyridine-5-carbonyl)-3,3-dimethylpiperazin-2-one], for which the IC50 lay in the range of 20 to 10000 nM. For the compound `Cc1cc(N2CCN(C(=O)c3ccc4c(-c5ccc(F)c(F)c5)cn(CC(C)C)c4n3)C(C)(C)C2)nc(C)c1C(=O)O` [Example 141, 6-(4-(3-(3,4-difluorophenyl)-1-isobutyl-1H-pyrrolo[2,3-b]pyridine-6-carbonyl)-3,3-dimethylpiperazin-1-yl)-2,4-dimethylnicotinic acid], the IC50 was less than 20 nM. In the case of `CC(C)Cn1cc(-c2ccc(Cl)cc2)c2ccc(C(=O)N3CCNC(=O)C3(C)C)nc21` [Example 54, 4-[3-(4-chlorophenyl)-1-isobutyl-pyrrolo[2,3-b]pyridine-6-carbonyl]-3,3-dimethyl-piperazin-2-one], the IC50 lay within 20 to 10000 nM. In the case of `CC(C)(C)n1cc(-c2ccc(Cl)c(F)c2)c2ccc(C(=O)N3CC4(COC4)C3)nc21` [Example 10, (1-(tert-butyl)-3-(4-chloro-3-fluorophenyl)-1H-pyrrolo[2,3-b]pyridin-6-yl)(2-oxa-6-azaspiro[3.3]heptan-6-yl)methanone], the IC50 was greater than 10000 nM. In the case of `Cc1cc(N(C)[C@@H]2CCN(C(=O)c3ccc4c(-c5ccc(Cl)c(F)c5)cn(C(C)(C)C)c4n3)C2)nc(C)c1C(=O)O` [Example 155, (R)-6-((1-(1-(tert-butyl)-3-(4-chloro-3-fluorophenyl)-1H-pyrrolo[2,3-b]pyridine-6-carbonyl)pyrrolidin-3-yl)(methyl)amino)-2,4-dimethylnicotinic acid], the IC50 was 20 to 10000 nM.

In the case of `CN(C)C(=O)CC1CCN(C(=O)c2ccc3c(-c4ccc(Cl)c(F)c4)cn(C(C)(C)C)c3n2)CC1` [Example 164, 2-(1-(1-(tert-butyl)-3-(4-chloro-3-fluorophenyl)-1H-pyrrolo[2,3-b]pyridine-6-carbonyl)piperidin-4-yl)-N,N-dimethylacetamide], the half-inhibitory concentration (IC50) lay within 20 to 10000 nM. As for `Cc1cc(N2CCCN(C(=O)c3ccc4c(-c5ccc(Cl)c(F)c5)cn(C(C)(C)C)c4n3)CC2)nc(C)c1C(=O)O` [Example 127, 6-(4-(1-(tert-butyl)-3-(4-chloro-3-fluorophenyl)-1H-pyrrolo[2,3-b]pyridine-6-carbonyl)-1,4-diazepan-1-yl)-2,4-dimethylnicotinic acid], the IC50 is 20 to 10000 nM.

Regarding `CC(C)Cn1cc(-c2ccc(OC(F)(F)F)cc2)c2ccc(C(=O)N3CCNC(=O)C3(C)C)nc21` [Example 116, 4-(1-isobutyl-3-(4-(trifluoromethoxy)phenyl)-1H-pyrrolo[2,3-b]pyridine-6-carbonyl)-3,3-dimethylpiperazin-2-one], the IC50 was 20 to 10000 nM. Regarding `CC1(C)C(=O)NCCN1C(=O)c1ccc2c(-c3ccc(Cl)c(F)c3)cn(CCn3cccn3)c2n1` [Example 61, 4-(1-(2-(1H-pyrazol-1-yl)ethyl)-3-(4-chloro-3-fluorophenyl)-1H-pyrrolo[2,3-b]pyridine-6-carbonyl)-3,3-dimethylpiperazin-2-one], the IC50 lay within 20 to 10000 nM.

With `CC(C)(C)n1cc(-c2ccc(Cl)c(F)c2)c2ccc(C(=O)N3CCCNC(=O)C3)nc21` [Example 17, 4-(1-(tert-butyl)-3-(4-chloro-3-fluorophenyl)-1H-pyrrolo[2,3-b]pyridine-6-carbonyl)-1,4-diazepan-2-one], the IC50 lay within 20 to 10000 nM. Turning to `Cc1nc(Cn2cc(-c3ccc(Cl)c(F)c3)c3ccc(C(=O)N4CCN(c5cc(C)c(C(=O)O)c(C)n5)CC4(C)C)nc32)c(C)o1` [Example 159, 6-(4-(3-(4-chloro-3-fluorophenyl)-1-((2,5-dimethyloxazol-4-yl)methyl)-1H-pyrrolo[2,3-b]pyridine-6-carbonyl)-3,3-dimethylpiperazin-1-yl)-2,4-dimethylnicotinic acid], the IC50 lay in the range of 20 to 10000 nM. With `CC(C)Cn1cc(-c2ccc(Cl)c(Cl)c2)c2ccc(C(=O)N3CCNC(=O)C3(C)C)nc21` [Example 107, 4-(3-(3,4-dichlorophenyl)-1-isobutyl-1H-pyrrolo[2,3-b]pyridine-6-carbonyl)-3,3-dimethylpiperazin-2-one], the IC50 is less than 20 nM.

As to `Cc1cc(N2CCN(C(=O)c3ccc4c(-c5ccc(Cl)c(F)c5)cn(C[C@@H]5CCOC5)c4n3)C(C)(C)C2)nc(C)c1C(=O)O` [Example 182, (S)-6-(4-(3-(4-chloro-3-fluorophenyl)-1-((tetrahydrofuran-3-yl)methyl)-1H-pyrrolo[2,3-b]pyridine-6-carbonyl)-3,3-dimethylpiperazin-1-yl)-2,4-dimethylnicotinic acid], the IC50 fell in the range of 20 to 10000 nM.

As for `Cc1cc(N2CCN(C(=O)c3ccc4c(-c5ccc(Cl)c(F)c5)cn(Cc5cccnc5)c4n3)C(C)(C)C2)nc(C)c1C(=O)O` [Example 135, 6-(4-(3-(4-chloro-3-fluorophenyl)-1-(pyridin-3-ylmethyl)-1H-pyrrolo[2,3-b]pyridine-6-carbonyl)-3,3-dimethylpiperazin-1-yl)-2,4-dimethylnicotinic acid hydrochloride], the IC50 is 20 to 10000 nM.

(Values after patent US20240066027A1 (DOMAIN THERAPEUTICS, priority 2020, published 2024).)
